The values that follow come from US20070037752A1, “Novel alanyl-amino peptidase inhibitors for functionally influencing different cells and treating immunological, inflammatory, neuronal, and other diseases” (priority 2003, published 2007).

The target in the assay is alanyl aminopeptidases (APN) (Homo sapiens, UniProt P15144). Nature of the assay: Inhibition of alanyl aminopeptidase enzymatic activity, fluorogenic substrate (Ala)2-rhodamine 110. It counts as biochemical. As for the experimental part: The inhibition characteristics measured are referred to as IC-50 values or ID50 values (the latter marked with “*”) for said enzyme. The enzymatic activity was determined by means of the fluorogenic substrate/product (Ala)2-rhodamine 110.
Chain of alanyl aminopeptidases (APN) (P15144 whole entry, species assumed): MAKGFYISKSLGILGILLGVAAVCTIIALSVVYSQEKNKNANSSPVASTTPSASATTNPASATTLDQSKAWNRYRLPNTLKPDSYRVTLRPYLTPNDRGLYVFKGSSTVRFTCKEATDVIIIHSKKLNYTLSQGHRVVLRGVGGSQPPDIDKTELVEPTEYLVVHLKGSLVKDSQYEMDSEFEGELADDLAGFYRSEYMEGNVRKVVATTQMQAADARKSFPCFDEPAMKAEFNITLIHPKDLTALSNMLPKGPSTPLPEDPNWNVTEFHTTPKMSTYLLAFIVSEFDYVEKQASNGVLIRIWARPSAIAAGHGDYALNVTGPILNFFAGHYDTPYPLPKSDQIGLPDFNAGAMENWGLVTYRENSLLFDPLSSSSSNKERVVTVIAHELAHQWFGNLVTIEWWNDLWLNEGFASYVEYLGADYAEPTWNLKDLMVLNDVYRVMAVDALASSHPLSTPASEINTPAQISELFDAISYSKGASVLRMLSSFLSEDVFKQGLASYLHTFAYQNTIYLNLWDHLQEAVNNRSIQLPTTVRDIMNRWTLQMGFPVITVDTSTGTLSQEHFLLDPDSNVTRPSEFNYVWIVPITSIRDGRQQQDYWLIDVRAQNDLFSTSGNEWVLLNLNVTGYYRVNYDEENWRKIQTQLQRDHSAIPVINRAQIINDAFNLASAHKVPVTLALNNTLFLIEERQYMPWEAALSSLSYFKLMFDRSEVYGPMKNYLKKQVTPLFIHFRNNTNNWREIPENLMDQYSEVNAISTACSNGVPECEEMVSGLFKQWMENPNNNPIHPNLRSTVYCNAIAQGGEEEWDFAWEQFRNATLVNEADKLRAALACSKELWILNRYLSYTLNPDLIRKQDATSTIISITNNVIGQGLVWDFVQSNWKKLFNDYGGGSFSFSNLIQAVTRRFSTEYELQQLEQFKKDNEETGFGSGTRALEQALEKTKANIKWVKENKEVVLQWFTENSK

Setting [1] is: Table 4, unstarred values, read-out: IC50APN.
The mark [2] stands for this setting: Table 4, starred values = ID50, read-out: ID50 APN (values marked with *).

SMILES strings stand for the structures. Where two headings read alike, the source gives them in different places.

For `CC1=NNC(=O)C1CCC(=O)N/N=C\C=C\c1ccco1` (stereo not drawn) [A4.068], the IC50 under setting [1] was 23 µM.
Still for that read-out and setting: the figure for `COc1cc(/C=N/NC(=O)/C(=C\c2ccc(N(C)C)cc2)NC(=O)c2ccccc2)cc([N+](=O)[O-])c1O` [A4.069] is 23 µM; for `Cc1cc(C)cc(OCC(=O)N/N=C/c2ccco2)c1` [A4.070] it is 23.4 µM; for `COc1ccc(CCCC(=O)N/N=C/c2ccco2)cc1` [A4.071] it is 23.4 µM.
On to `Cc1ccc(/C=N/NC(=O)c2ccc(O)cc2)o1` [A4.072], for which the IC50 under setting [1] amounted to 23.4 µM.
On to `O=C(N/N=C/c1cc(Br)c(O)c(Br)c1O)/C(=C\c1ccc2c(c1)OCO2)NC(=O)c1ccccc1` [A4.073], for which the IC50 under setting [1] is 23.6 µM.
Still for that read-out and setting: the value for `O=C(N/N=C\c1ccco1)c1ccc(Br)cc1` [A4.074] was 24.5 µM; that for `Cc1ccc(C)n1-c1cccc(C(=O)N/N=C/c2cc(Br)c(O)c(Br)c2)c1` [A4.075] was 24.9 µM.
As to `COc1cc(/C=N/NC(=O)/C(=C/c2cccs2)NC(=O)c2ccccc2)cc([N+](=O)[O-])c1O` [A4.076], the IC50 under setting [1] was determined as 25.1 µM.
As for `CCc1ccc(OCC(=O)N/N=C\c2ccco2)c([N+](=O)[O-])c1` [A4.077], the IC50 under setting [1] amounted to 25.1 µM.
Regarding `O=C(N/N=C/c1cc([N+](=O)[O-])ccc1O)c1ccc(Cl)cc1` [A4.078], the IC50 under setting [1] is 25.7 µM.
For `CCOc1ccc(Br)cc1C(=O)N/N=C/c1ccco1` [A4.079], the IC50 under setting [1] amounted to 25.8 µM.
With `O=C(N/N=C/c1ccco1)c1cccc(NC(=O)c2ccc(F)cc2)c1` [A4.080], the IC50 under setting [1] was 25.9 µM.
On the same count and under the same terms, the figure for `O=C(CCCOc1ccc(Cl)cc1Cl)N/N=C/c1ccco1` [A4.081] is 26.3 µM; for `Cc1ccc(/C=N/NC2=NC(=O)CS2)o1` [A4.082] it is 26.4 µM; for `Cc1ccc(/C=N/NC(=O)c2cc(O)cc(O)c2)o1` [A4.083] it is 26.4 µM.
`Cc1ccc(/C=N/NC(=O)c2nnn(-c3nonc3N)c2CN2CCOCC2)o1` [A4.084]: under setting [1], the IC50 stood at 26.7 µM.
With `CCCCCC(=O)N/N=C/c1ccco1` [A4.085], under setting [1], the IC50 was 26.7 µM.
For the compound `CCCOc1ccc(/C=C(\NC(=O)c2ccccc2)C(=O)N/N=C/c2ccco2)cc1` [A4.086], under setting [1], the IC50 is 27.3 µM.
Take `Cc1nn(-c2ccccc2)c(C)c1-c1cc(C(=O)N/N=C/c2ccco2)[nH]n1` [A4.087]: the IC50 under setting [1] came to 27.4 µM.
`CC(/C=N/NC(=O)c1ccco1)=C\c1ccco1` [A4.088]: the IC50 under setting [1] was found to be 27.5 µM.
Same read-out and setting: the value for `CC1SC(N/N=C/c2ccco2)=NC1=O` (stereo not drawn) [A4.089] was 27.7 µM.
For `O=C(Cc1cccs1)N/N=C/C=C\c1ccco1` [A4.090], the IC50 under setting [1] stood at 28 µM.
On the same count and under the same terms, the value for `CC(/C=C/c1ccco1)=N\NC(=O)CNc1ccc2ccccc2c1` [A4.091] was 28.5 µM; that for `CC(N/N=C1/SC(CC(=O)O)C(=O)N1c1ccccc1)c1ccco1` (stereo not drawn) [A4.092] was 28.6 µM; that for `COc1ccc(/C(C)=N/NC(=O)CNC(=O)/C=C\c2ccco2)cc1` [A4.093] was 29.4 µM.
On to `O=C(N/N=C/c1ccco1)c1cccc(NC(=O)c2ccccc2)c1` [A4.094], for which, under setting [1], the IC50 came out at 29.5 µM.
For `CC(=O)Nc1ccc(C(=O)N/N=C/c2ccc(C)o2)cc1` [A4.095], the IC50 under setting [1] was determined as 29.7 µM.
As for `Cc1ccc(/C=N/NC(=O)c2cccc(I)c2)o1` [A4.096], under setting [1], the IC50 stood at 30 µM.
Regarding `O=C(N/N=C\c1ccco1)c1cnccn1` [A4.097], the IC50 under setting [1] came to 30.1 µM.
As to `Cc1occc1C(=O)N/N=C/C=C\c1ccco1` [A4.098], under setting [1], the IC50 stood at 31 µM.
In the case of `Cc1cc(C(=O)N/N=C/c2ccc(C)o2)[nH]n1` [A4.100], the IC50 under setting [1] was 31.8 µM.
Turning to `O=C(CNC(=O)c1ccccc1Br)N/N=C/c1ccoc1` [A4.101], under setting [1], the IC50 is 31.9 µM.
On to `O=C(CC(=O)N/N=C/c1ccco1)N/N=C/c1ccco1` [A4.102], for which the IC50 under setting [1] came out at 32.4 µM.
With `O=C(N/N=C/c1ccco1)c1ccc(NC(=O)c2ccccc2Cl)cc1` [A4.103], under setting [1], the IC50 worked out at 32.5 µM.
On the same count and under the same terms, the figure for `CCOc1ccc(-c2cc(C(=O)N/N=C/c3ccco3)[nH]n2)cc1OC` [A4.104] is 33.4 µM.
As to `Cc1cccc(C(=O)Nc2ccc(C(=O)N/N=C/c3ccc4c(c3)OCO4)cc2)c1` [A4.105], the IC50 under setting [2] was found to be 33.8 µM.
With `O=C(CCC(=O)Nc1cccc(Cl)c1)N/N=C/c1ccco1` [A4.106], under setting [1], the IC50 came to 34 µM.
Same read-out and setting: the figure for `C/C(=N\NC(=O)c1ccccc1)c1ccc2ccccc2c1O` [A4.107] is 34.2 µM; for `Cc1ccc(/C=N/NC(=O)c2ccc(F)cc2)o1` [A4.108] it is 34.4 µM; for `O=C(Nc1ccccc1C(=O)N/N=C/c1ccco1)c1ccccc1Cl` [A4.109] it is 34.7 µM.
Consider `COc1ccccc1C(=O)N/N=C/c1ccc(C)o1` [A4.110], for which the IC50 under setting [1] came out at 34.7 µM.
For the compound `O=C(N/N=C/c1ccco1)c1cccc(I)c1` [A4.111], the IC50 under setting [1] is 34.7 µM.
On the same count and under the same terms, the figure for `CSc1nnc2n(/N=C/c3ccco3)cnn12` [A4.112] is 34.7 µM; for `CC(=O)n1cc(/C=C/C=N/NC(=O)CC#N)c2ccccc21` [A4.113] it is 35.5 µM.
On to `COc1cc(-c2cc(C(=O)N/N=C/c3ccco3)[nH]n2)ccc1OC(C)C` [A4.114], for which the IC50 under setting [1] was 36.1 µM.
`Cc1cccc(C(=O)Nc2cccc(C(=O)N/N=C/c3ccc(C)o3)c2)c1` [A4.115]: the IC50 under setting [1] was found to be 36.2 µM.
`COc1cc(Br)ccc1OCC(=O)N/N=C(C)/C=C/c1ccco1` [A4.116]: under setting [1], the IC50 was 36.3 µM.
Consider `Cc1ccc(OCC(=O)N/N=C/c2ccco2)cc1C` [A4.117], for which, under setting [1], the IC50 stood at 36.3 µM.
As to `CC(/C=N/NC(=O)C(O)c1ccccc1)=C\c1ccco1` (stereo not drawn) [A4.118], the IC50 under setting [1] was 36.3 µM.
Consider `Cc1c(Cl)cccc1NC(=O)CCC(=O)N/N=C/c1ccco1` [A4.119], for which, under setting [1], the IC50 was 36.6 µM.
On the same count and under the same terms, the figure for `O=C(N/N=C/c1ccco1)c1ccccc1` [A4.120] is 37.7 µM; for `COc1ccc2ccccc2c1-c1cc(C(=O)N/N=C(\C)c2ccco2)[nH]n1` [A4.121] it is 38.2 µM.
Regarding `O=C(N/N=C/c1ccco1)c1ccc(O)cc1O` [A4.122], under setting [1], the IC50 amounted to 38.3 µM.
As for `CC(=O)Nc1ccc(C(=O)N/N=C/c2ccco2)cc1` [A4.123], the IC50 under setting [1] turned out to be 38.4 µM.
With `COc1ccc(C(=O)N/N=C\c2cc(Br)c(O)c(O)c2Br)cc1` [A4.124], under setting [2], the IC50 was 39.7 µM.
Consider `O=C(CCC(=O)Nc1ccccc1)N/N=C/c1ccco1` [A4.125], for which the IC50 under setting [1] came to 41.1 µM.
On the same count and under the same terms, the figure for `Cc1cc(Br)c(OCC(=O)N/N=C/c2c(Br)cc(Br)c(O)c2Br)c(Br)c1` [A4.126] is 42.2 µM.
As for `COc1ccc(OC)c(-c2cc(C(=O)N/N=C/c3ccco3)[nH]n2)c1` [A4.127], the IC50 under setting [1] was 43.2 µM.
For `O=C(Cn1cnc2ccccc21)N/N=C/c1ccco1` [A4.128], under setting [1], the IC50 is 43.3 µM.
Take `Cc1ccc(/C=N/NC(=O)c2ccc(N3CCCC3=O)cc2)o1` [A4.129]: under setting [1], the IC50 worked out at 44.2 µM.
As for `O=C(N/C=C1/C(=O)Nc2ccc(F)cc21)/C(=C/c1ccccc1)NC(=O)c1ccccc1` [A4.130], the IC50 under setting [1] is 44.2 µM.
Same read-out and setting: the value for `COc1ccccc1C(=O)N/N=C/c1ccco1` [A4.131] was 44.7 µM; that for `O=C(N/N=C/c1cccc([N+](=O)[O-])c1)c1ccco1` [A4.132] was 45.4 µM; that for `Cc1ccccc1C(=O)Nc1ccc(C(=O)N/N=C/c2ccco2)cc1` [A4.133] was 45.4 µM.
For the compound `CC(C)Oc1ccc(Br)cc1C(=O)N/N=C/c1ccco1` [A4.134], the IC50 under setting [1] came to 46.6 µM.
Same read-out and setting: the figure for `Nc1nonc1-n1nnc(C(=O)N/N=C/c2ccco2)c1-c1ccccc1` [A4.135] is 46.6 µM.
For the compound `COc1ccc(N(C(C)C(=O)N/N=C/c2ccco2)S(C)(=O)=O)cc1` (stereo not drawn) [A4.136], the IC50 under setting [1] came to 47 µM.
As for `O=C(COc1ccc2ccccc2c1Br)N/N=C/c1ccco1` [A4.137], under setting [1], the IC50 was 47.3 µM.
With `O=C(O)CC1S/C(=N/N=C/c2ccco2)NC1=O` (stereo not drawn) [A4.138], under setting [2], the IC50 stood at 48.1 µM.
Turning to `Cc1cc(C(=O)N/N=C/c2ccco2)[nH]n1` [A4.139], the IC50 under setting [1] is 48.2 µM.
As for `O=C(CNC(=O)c1ccccc1)N/N=C/c1ccco1` [A4.140], the IC50 under setting [2] came to 49.4 µM.
In the case of `NC(=S)N/N=C/c1ccco1` [A4.141], the IC50 under setting [1] was 50 µM.
Consider `Cc1ccc(/C=N/NC(=O)c2cc(C)oc2C)o1` [A4.142], for which, under setting [1], the IC50 amounted to 50.2 µM.
Consider `CCCCCCCC(=O)N/N=C/c1ccco1` [A4.143], for which the IC50 under setting [1] turned out to be 50.3 µM.
As for `Cc1ccc(/C=N\NC(=O)Cc2cccs2)o1` [A4.144], the IC50 under setting [1] is 51.1 µM.
`CC(/C=C/c1ccco1)=N\NC(=O)COc1ccc(C(C)(C)C)cc1` [A4.145]: the IC50 under setting [1] was 53.4 µM.
With `O=C(N/N=C/c1cc(Br)ccc1OC(=O)c1ccc([N+](=O)[O-])cc1)/C(=C\c1ccc2c(c1)OCO2)NC(=O)c1ccccc1` [A4.146], under setting [1], the IC50 came out at 54.2 µM.
For `Cc1ccc(OCC(=O)N/N=C/c2c(Br)cc(Br)c(O)c2Br)c(Br)c1` [A4.147], under setting [2], the IC50 amounted to 54.2 µM.
For `O=C(CNS(=O)(=O)c1ccc2c(c1)OCCO2)N/N=C/c1ccco1` [A4.148], the IC50 under setting [1] was determined as 55.6 µM.
Same read-out and setting: the value for `C/C(=N\NC(=O)c1cc(-c2ccccc2)n[nH]1)c1ccco1` [A4.149] was 58.3 µM; that for `O=C(CNC(=O)c1ccccc1F)N/N=C/c1ccc([N+](=O)[O-])o1` [A4.150] was 60 µM; that for `O=C(N/N=C/C=C\c1ccco1)c1cccs1` [A4.151] was 62.7 µM.
Consider `O=C(N/N=C/c1ccco1)c1cccc(Br)c1` [A4.152], for which, under setting [1], the IC50 turned out to be 62.7 µM.
`Cc1ccc(/C=N/NC(=O)COc2cccc(Cl)c2)o1` [A4.153]: under setting [1], the IC50 amounted to 62.7 µM.
With `CC(=O)Nc1cccc(C(=O)N/N=C/c2ccc(C)o2)c1` [A4.154], the IC50 under setting [2] was 63.1 µM.
The same measure, in the same setting: the value for `COc1ccc(C(=O)NCC(=O)N/N=C/c2ccco2)cc1OC` [A4.156] was 64.9 µM; that for `COc1ccc(CSCC(=O)N/N=C/c2ccco2)cc1` [A4.157] was 66 µM.
`Cc1cccc(C(=O)Nc2ccc(C(=O)N/N=C/c3ccco3)cc2)c1` [A4.158]: the IC50 under setting [2] amounted to 67.1 µM.
On to `O=C(N/N=C/c1ccco1)c1ccc(F)cc1` [A4.159], for which, under setting [1], the IC50 was found to be 68.9 µM.
